System: T1, horseradish peroxidase (HRP)
T1 construct: gene PRXC1A; native enzyme, free in solution
Experiment: guaiacol oxidation assay, spectrophotometric, Michaelis-Menten fit
Assay type: biochemical, Armoracia rusticana
Settings: native free enzyme; co-substrate hydrogen peroxide
Description: guaiacol oxidation assay, spectrophotometric, Michaelis-Menten fit on horseradish peroxidase (HRP)

Q: For `COc1ccccc1O` [guaiacol], which Km is on record?
A: Its Km is 1560 ± 80 µM.

— publication PMC7900168, “Nanocomposite-based dual enzyme system for broad-spectrum scavenging of reactive oxygen species” (Scientific Reports, 2021)
